Data: PMC6863902, “Functional and structural basis of E. coli enolase inhibition by SF2312: a mimic of the carbanion intermediate” (Scientific Reports, 2019)
Several values for one entry are separate records, joined by “and”; a condition that tells them apart may be missing. Equal entries are not always repeated. Where two headings read alike, the source gives them in different places. Each block holds one compound with its values, some of them ahead of it.

How the values were obtained:
[1] = target: T1, recombinant E. coli enolase (Escherichia coli, UniProt P0A6P9); test: Differential scanning calorimetry thermal unfolding of enolase with inhibitors; type: binding; details: for protein thermal melting point (Tm): enolase 6 μM with ligand 60 μM, apo enolase 52.7 °C; for shift of thermal melting point: versus enolase without inhibitor (∼53 °C)
T1 construct: made in house
T1 sequence (P0A6P9 whole entry): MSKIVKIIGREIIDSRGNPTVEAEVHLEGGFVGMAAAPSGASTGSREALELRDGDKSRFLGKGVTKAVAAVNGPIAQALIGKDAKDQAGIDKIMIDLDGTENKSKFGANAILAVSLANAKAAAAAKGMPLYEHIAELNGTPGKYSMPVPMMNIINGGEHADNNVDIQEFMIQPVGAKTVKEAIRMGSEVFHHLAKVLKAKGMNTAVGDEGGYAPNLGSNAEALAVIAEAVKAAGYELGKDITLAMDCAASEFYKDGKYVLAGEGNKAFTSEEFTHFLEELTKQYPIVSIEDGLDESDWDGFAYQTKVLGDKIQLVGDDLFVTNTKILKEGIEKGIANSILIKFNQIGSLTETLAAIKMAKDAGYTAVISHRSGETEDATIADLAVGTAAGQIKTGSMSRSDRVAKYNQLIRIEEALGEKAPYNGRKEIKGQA
Description: We used differential scanning calorimetry to analyze the direct in vitro binding of SF2312 and KSF to recombinant E. coli enolase (see Fig. 3). […] Upon overnight treatment with SF2312, the protein thermal melting point was ~82 °C, a shift of ∼29 °C.
The DCS experiment was performed as described previously. Prior to analysis, purified E. coli enolase was buffer exchanged into 20 mM HEPES (pH 7.0), 50 mM NaCl and 2 mM MgCl2. The concentrations of protein and ligand were adjusted to 6 μM and 60 μM, respectively. Protein samples with and without ligand were heated from 0–120 °C at 1 °C/min using a NanoDSC instrument (TA instruments). The samples were degassed for 15 minutes prior to injection into the calorimeter cell. The reference cell was filled with buffer for all runs. A pressure of 3 atm was applied to both cells during the run. The excess heat capacity scans for the protein transitions were obtained by subtracting a control scan of buffer versus buffer. The data were corrected for the difference in heat capacity between the initial and the final state by using a sigmoid baseline in the NanoAnalyze software (TA instruments) and a two-state transition model was used to determine the denaturation temperature (Tm) (Fig. 3).

[2] = target: T1, recombinant E. coli enolase; test: E. coli enolase enzymatic inhibition assay (PEP absorbance at 240 nm); type: biochemical; details: for IC50: enolase 40 nM, 0.5 mM 2-PGA, 25 °C; for Ki: from IC50 by Cheng-Prusoff equation and KM
Description: To assess the relative affinity of SF2312 and KSF for enolase, the inhibitory constant, Ki, was determined from IC50 values using the Cheng-Prusoff equation and KM values.
The activity and inhibition of E. coli enolase described in this study was carried out using the procedure as we previously reported. Briefly, enolase activity was measured at 25 °C in the forward (formation of PEP from 2‐PGA) direction by direct monitoring of the increase in PEP absorbance at 240 nm, using a DU 640 spectrophotometer (Beckman). The standard assay contained 50 mM Tris pH 8.0, 0.1 M KCl, 0.5 mM 2-PGA and 1 mM MgSO4. The reactions were carried out at a final volume of 500 μL. Initial velocities came from the slopes of linear progress curves of 1 minute duration. One unit of enolase activity was defined as the amount of protein which catalyzes the formation of 1 μmole PEP from 2-PGA in 1 minute. The concentration of PEP was determined using a molar extinction coefficient (Ɛ240nm = 1400 M^−1 cm^1).
Inhibition of enolase activity by SF2312 and its analog, KSF was performed at a constant enolase concentration of 40 nM. The compounds, supplied in water, were preincubated with protein at concentrations ranging from 2 nM to 20 µM for 5 minutes in the assay buffer consisting of 50 mM Tris pH 8.0, 0.1 M KCl and 1 mM MgSO4. The reaction was initiated by the addition of 0.5 mM 2-PGA. The decrease in enolase activity upon inhibition was monitored at 5 second intervals for a period of 5 minutes at λ =240 nm. The average half maximal inhibitory concentrations (IC50) was calculated from initial rates of absorbance increase plotted as a function of ligand concentration using GraphPad Prism software (Fig. 2). Ki values were calculated using the Cheng-Prusoff equation from the experimental IC50 and Km values.

ENO1-rescued cells = system: ENO1-rescued cells; set-up: method as in earlier work; details: isogenic ENO1-rescued glioma cells; ref 5 (Leonard et al.); cited from earlier work
E. coli ATCC 25922 [3] = test: Checkerboard synergy of SF2312 with fosfomycin; type: cell-based, Escherichia coli; details: for MIC: Escherichia coli; for maximum drop of E. coli MIC when co-administered: SF2312 co-administered with fosfomycin
Description: It should be noted that the target of fosfomycin, UDP-N-acetylglucosamine enolpyruvyl transferase (MurA), acts immediately downstream of enolase utilizing PEP in the first step of peptidoglycan synthesis. Since targeting two sequential enzymes in the same metabolic pathway can be a powerful synergistic mechanism for two antibiotics, an evidence for synergy between SF2312 and fosfomycin was assessed by the checkerboard method. […] The observed synergy supports the notion that the antibacterial activity of SF2312 is due to the inhibition of enolase since, fosfomycin is known to have minimal to no effect on the enzymes utilizing PEP, such as enolase.
(§1) To evaluate the activity of SF2312 against Gram-positive and Gram-negative bacteria, we have determined the minimal inhibitory concentration (MIC) for Escherichia coli ATCC 25922, Staphylococcus aureus ATCC […], Pseudomonas aeruginosa ATCC 27853, and Acinetobacter baumannii ATTC 19606 using the microdilution broth assay based on Clinical and Laboratory Standards Institute. Concentrations of SF2312 and the standard antibiotics tested were serially diluted to the following ranges: SF2312, 300 to 0.2 μg/mL; trimethoprim 10 to 0.01 μg/mL and fosfomycin, 20 to 0.040 μg/mL. For synergy studies, using the checkerboard method the following concentration range was used: fosfomycin 10 to 0.156 μg/mL and SF2312 100 to 0.05 μg/mL. The cation-adjusted Mueller-Hinton broth was supplemented with 25 μg/mL glucose-6-phosphate. Growth was monitored at Abs 600 nm. The MIC of each antimicrobial agent alone and in combination was defined as the lowest concentration that inhibited visible growth of the organism and were determined in duplicate.
The definition of synergy used in these studies was the fractional inhibitory concentration (FIC) index, represented by the formula FIC= (MIC of fosfomycin in combination/MIC of fosfomycin alone) + (MIC of SF2312 in combination/MIC of the SF2312 alone). A calculated FIC index of less than 0.5 represented a synergistic effect (i.e., total effect greater than the sum of the individual antibiotic effects), a value between 0.5–2 represented an additive effect (i.e. no additional contribution from including the second antibiotic, compared with when the first antibiotic. A value greater than 2 represented an antagonistic effect (i.e., total effect less than the sum of the individual effects)[26].

P. aeruginosa ATCC 27853 = test: MIC, microdilution broth assay; type: cell-based, Pseudomonas aeruginosa
Excerpt: as §1

S. aureus ATCC 43300 = test: MIC, microdilution broth assay; type: cell-based; details: Staphylococcus aureus
Excerpt: as §1

E. coli ATCC 25922 [4] = test: MIC, microdilution broth assay; type: cell-based; details: Escherichia coli
Excerpt: as §1

A. baumannii ATCC 19606 = test: MIC, microdilution broth assay; type: cell-based, Acinetobacter baumannii
Excerpt: as §1

[5] = CAHM media with 25 μg/mL Glucose-6-Phosphate

SMILES: O=C1CC(P(=O)(O)O)C(=O)N1O (stereo not drawn) [KSF, (1-hydroxy-2,5-dioxopyrrolidin-3-yl)phosphonic acid]
protein thermal melting point (Tm) [1]: 70.85 °C
shift of thermal melting point [1]: ~18 °C
IC50 [2]: 7.67 µM and 7.7 µM
Ki [2]: 1400 nM
loss in activity between SF2312 and KSF ([2]; ratio of IC50 values): over 400 fold

SMILES: O=C1C(P(=O)(O)O)CC(O)N1O (stereo not drawn) [SF2312, 3-Dihydroxyphosphoryl-1-,5-dihydroxy-2-pyrrolidone]
GI50 (ENO1-rescued cells): > 200 µM
MIC (E. coli ATCC 25922 [3]; ATCC25922, read-out: MIC alone): 100 µg/mL
maximum drop of E. coli MIC when co-administered (E. coli ATCC 25922 [3]): 16 fold
MIC (P. aeruginosa ATCC 27853; [5]): 50 µg/mL
MIC (P. aeruginosa ATCC 27853; Pseudomonas aeruginosa, ATCC27853): 50 µg/mL
protein thermal melting point (Tm) [1]: ~ 82 °C and 81.75 °C
shift of thermal melting point [1]: ~29 °C
MIC (S. aureus ATCC 43300; ATCC43300, CAHM media with 25 μg/mL Glucose-6-Phosphate): 20 µg/mL
MIC (S. aureus ATCC 43300; ATCC43300, CAHM media without Glucose-6-Phosphate): 100 µg/mL
MIC (E. coli ATCC 25922 [4]; ATCC25922, CAHM media with 25 μg/mL Glucose-6-Phosphate): 100 µg/mL
MIC (E. coli ATCC 25922 [4]; ATCC25922, CAHM media without Glucose-6-Phosphate): 400 µg/mL
MIC (A. baumannii ATCC 19606; Acinetobacter baumannii, ATCC19606): > 400 µg/mL
MIC (A. baumannii ATCC 19606; [5]): >400 µg/mL
IC50 [2]: 0.0184 ± 0.00284 µM
Ki [2]: 3.4 nM

MIC (E. coli ATCC 25922 [3]; ATCC25922, checkerboard, partner agent 0 μg/mL, 25 μg/mL glucose-6-phosphate, read-out: MIC alone): 1.25 µg/mL
maximum drop of E. coli MIC when co-administered (E. coli ATCC 25922 [3]): 4 fold
MIC (P. aeruginosa ATCC 27853; [5]): 5 µg/mL
MIC (P. aeruginosa ATCC 27853; Pseudomonas aeruginosa, ATCC27853, CAHM media without Glucose-6-Phosphate, read-out: MIC): 5 µg/mL
MIC (S. aureus ATCC 43300; ATCC43300, CAHM media with 25 μg/mL Glucose-6-Phosphate, read-out: MIC): 2.5 µg/mL
MIC (S. aureus ATCC 43300; ATCC43300, CAHM media without Glucose-6-Phosphate, read-out: MIC): 20 µg/mL
MIC (E. coli ATCC 25922 [4]; ATCC25922, CAHM media with 25 μg/mL Glucose-6-Phosphate, read-out: MIC): 1.25 µg/mL
MIC (E. coli ATCC 25922 [4]; ATCC25922, CAHM media without Glucose-6-Phosphate, read-out: MIC): > 10 µg/mL
MIC (A. baumannii ATCC 19606; Acinetobacter baumannii, ATCC19606, CAHM media without Glucose-6-Phosphate, read-out: MIC): > 20 µg/mL
MIC (A. baumannii ATCC 19606; [5]): >20 µg/mL
SMILES: C[C@@H]1O[C@@H]1P(=O)(O)O [fosfomycin]
